Columns and labels:
CDK12 = target: T1, CDK12 (Homo sapiens, UniProt Q9NYV4); test: CDK12 nuclear protein level: immunofluorescence/high content analysis in CAL-120 cells; type: cell-based; details: for DC50: CAL-120 cells, 24 h, nuclear CDK12 staining intensity, median, read-out: CDK12 degradation IF DC50 - [mol/l] (median); for (IC50 CDK12 high ATP) to (Degradation DC50 CDK12) ratio: ratio of IC50 CDK12 hATP (2 mM ATP) to DC50 CDK12 (IF, CAL-120)
T1 construct: endogenous in cells; host or cells: CAL-120 human breast cancer cells (DSMZ ACC 459)
Outline: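 Cells were exposed to compounds in dose-response for 24 h at 37 °C, then PFA-fixed, immunostained for CDK12 and counterstained with Hoechst before confocal imaging. Nuclear CDK12 intensity was normalized to DMSO and control. DC50 is the concentration giving 50% reduction of nuclear staining.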

CDK2/CyclinE = target: T2, CDK2/CyclinE (Homo sapiens, UniProt P24941); test: CDK2/CycE kinase assay (TR-FRET); type: biochemical; details: 2 mM ATP (high ATP); median; read-out: CDK2/CyclinE, 2 mM ATP (high ATP) IC50 - [mol/l] (median)
T2 construct: GST; purchased ProQinase GmbH (Freiburg, Germany); host or cells: insect cells (Sf9)
Excerpt: 2.4 CDK2/CycE Kinase Assay
CDK2/CycE-inhibitory activity of compounds of the present invention was quantified employing the CDK2/CycE TR-FRET assay as described in the following paragraphs.
Recombinant fusion proteins of GST and human CDK2 and of GST and human CycE, expressed in insect cells (Sf9) and purified by Glutathion-Sepharose affinity chromatography, were purchased from ProQinase GmbH (Freiburg, Germany). As substrate for the kinase reaction biotinylated peptide biotin-Ttds-YISPLKSPYKISEG (C-terminus in amid form) was used which can be purchased e.g. form the company JERINI peptide technologies (Berlin, Germany).
For the assay 50 nanoL of a 100 fold concentrated solution of the test compound in DMSO was pipetted into a black low volume 384 well microtiter plate or a black 1536 well microtiter plate (both Greiner Bio-One, Frickenhausen, Germany), 2 microL of a solution of CDK2/CycE in aqueous assay buffer [50 millimol/L Tris/HCl pH 8.0, 10 millimol/L MgCl2, 1.0 millimol/L dithiothreitol, 0.1 millimol/L sodium ortho-vanadate, 0.01% (v/v) Nonidet-P40 (Sigma)] were added and the mixture was incubated for 15 min at 22° C. to allow pre-binding of the test compounds to the enzyme before the start of the kinase reaction. Then the kinase reaction was started by the addition of 3 microL of a solution of adenosine-tri-phosphate (ATP, 3.33 millimol/L=>final conc. in the 5 microL assay volume is 2 millimol/L) and substrate (1.25 micromol/L=>final conc. in the 5 microL assay volume is 0.75 micromol/L) in assay buffer and the resulting mixture was incubated for a reaction time of 25 min at 22° C. The concentration of CDK2/CycE was adjusted depending of the activity of the enzyme lot and was chosen appropriate to have the assay in the linear range, typical concentrations were in the range of 10 ng/mL. The reaction was stopped by the addition of 3 microL of a solution of TR-FRET detection reagents (0.333 micromol/L streptavidine-XL665 [Cisbio Bioassays, Codolet, France] and 1.67 nanomol/L anti-RB(pSer807/pSer811)-antibody from BD Pharmingen [#558389] and 2 nanomol/L LANCE EU-W1024 labeled anti-mouse IgG antibody [Perkin-Elmer, product no. AD0077, as an alternative a Terbium-cryptate-labeled anti-mouse IgG antibody from Cisbio Bioassays can be used]) in an aqueous EDTA-solution (167 millimol/L EDTA, 0.2% (w/v) bovine serum albumin in 100 millimol/L HEPES pH 7.5).
The resulting mixture was incubated 1 h at 22° C. to allow the formation of complex between the phosphorylated biotinylated peptide and the detection reagents. Subsequently the amount of phosphorylated substrate was evaluated by measurement of the resonance energy transfer from the Eu-chelate to the streptavidine-XL. Therefore, the fluorescence emissions at 620 nm and 665 nm after excitation at 350 nm was measured in a TR-FRET reader, e.g. a Pherastar (BMG Labtechnologies, Offenburg, Germany) or a Viewlux (Perkin-Elmer). The ratio of the emissions at 665 nm and at […] was taken as the measure for the amount of phosphorylated substrate. The data were normalised (enzyme reaction without inhibitor=0% inhibition, all other assay components but no enzyme=100% inhibition).

T1 sequence (Q9NYV4 whole entry): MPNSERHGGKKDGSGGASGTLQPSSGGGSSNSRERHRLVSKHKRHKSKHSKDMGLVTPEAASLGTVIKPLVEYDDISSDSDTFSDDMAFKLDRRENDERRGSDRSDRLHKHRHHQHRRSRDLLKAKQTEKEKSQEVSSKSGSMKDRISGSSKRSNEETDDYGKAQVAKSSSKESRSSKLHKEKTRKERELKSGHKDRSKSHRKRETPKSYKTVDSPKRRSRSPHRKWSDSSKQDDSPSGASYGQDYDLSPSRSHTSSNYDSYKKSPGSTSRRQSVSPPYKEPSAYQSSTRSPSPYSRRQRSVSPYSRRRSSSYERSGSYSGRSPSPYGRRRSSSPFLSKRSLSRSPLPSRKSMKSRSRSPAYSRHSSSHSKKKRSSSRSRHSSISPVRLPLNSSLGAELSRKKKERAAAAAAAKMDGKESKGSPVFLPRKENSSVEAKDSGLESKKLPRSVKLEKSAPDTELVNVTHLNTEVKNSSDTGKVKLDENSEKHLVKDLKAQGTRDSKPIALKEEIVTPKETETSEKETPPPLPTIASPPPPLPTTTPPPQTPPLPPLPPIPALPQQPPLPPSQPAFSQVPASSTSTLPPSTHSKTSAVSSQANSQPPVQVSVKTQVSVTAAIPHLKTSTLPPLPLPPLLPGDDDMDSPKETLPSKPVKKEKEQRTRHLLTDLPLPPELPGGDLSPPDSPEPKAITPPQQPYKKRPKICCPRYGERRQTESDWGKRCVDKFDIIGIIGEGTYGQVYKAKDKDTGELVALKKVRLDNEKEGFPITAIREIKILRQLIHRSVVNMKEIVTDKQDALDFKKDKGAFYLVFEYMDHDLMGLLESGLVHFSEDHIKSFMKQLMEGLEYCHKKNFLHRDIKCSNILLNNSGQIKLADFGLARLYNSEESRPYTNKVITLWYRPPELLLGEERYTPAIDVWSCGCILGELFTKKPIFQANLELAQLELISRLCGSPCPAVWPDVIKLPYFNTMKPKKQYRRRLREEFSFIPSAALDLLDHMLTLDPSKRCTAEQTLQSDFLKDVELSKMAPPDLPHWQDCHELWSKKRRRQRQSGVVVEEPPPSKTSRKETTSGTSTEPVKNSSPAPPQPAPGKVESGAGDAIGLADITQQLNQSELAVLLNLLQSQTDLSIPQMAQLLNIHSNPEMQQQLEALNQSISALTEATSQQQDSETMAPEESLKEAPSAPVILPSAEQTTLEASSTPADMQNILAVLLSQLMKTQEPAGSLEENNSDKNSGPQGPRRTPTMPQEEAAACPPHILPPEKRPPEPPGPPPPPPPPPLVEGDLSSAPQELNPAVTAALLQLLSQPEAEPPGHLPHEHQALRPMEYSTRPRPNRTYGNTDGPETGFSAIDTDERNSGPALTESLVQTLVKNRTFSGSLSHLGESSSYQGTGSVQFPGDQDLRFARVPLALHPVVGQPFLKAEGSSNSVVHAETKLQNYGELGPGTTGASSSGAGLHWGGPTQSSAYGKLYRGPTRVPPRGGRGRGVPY
T1 sequence (O75909 whole entry partner): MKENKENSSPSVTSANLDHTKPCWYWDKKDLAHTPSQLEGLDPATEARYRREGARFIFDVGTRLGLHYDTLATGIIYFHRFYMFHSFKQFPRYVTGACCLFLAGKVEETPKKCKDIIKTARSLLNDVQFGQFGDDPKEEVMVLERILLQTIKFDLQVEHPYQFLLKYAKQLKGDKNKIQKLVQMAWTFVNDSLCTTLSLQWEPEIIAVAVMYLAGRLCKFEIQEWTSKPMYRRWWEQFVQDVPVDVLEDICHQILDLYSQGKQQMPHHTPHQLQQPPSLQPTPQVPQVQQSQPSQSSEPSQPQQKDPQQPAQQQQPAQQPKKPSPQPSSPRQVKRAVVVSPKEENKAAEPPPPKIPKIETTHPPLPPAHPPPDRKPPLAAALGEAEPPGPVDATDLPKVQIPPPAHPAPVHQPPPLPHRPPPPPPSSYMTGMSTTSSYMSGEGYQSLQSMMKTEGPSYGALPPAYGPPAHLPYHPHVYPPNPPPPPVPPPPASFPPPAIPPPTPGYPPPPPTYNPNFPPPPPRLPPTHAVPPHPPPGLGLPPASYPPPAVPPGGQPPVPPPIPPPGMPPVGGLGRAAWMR

| Compound | DC50 (CDK12) [nM] | (IC50 CDK12 high ATP) to (Degradation DC50 CDK12) ratio (CDK12) | IC50 (CDK2/CyclinE) [nM] |
| --- | --- | --- | --- |
| CN1CCC(n2nc(NCc3nc4ccccc4[nH]3)c3ncc(C4CC4)nc32)C1 (single isomer, unassigned) [Example 78, (+) or (−)-N-[(1H-benzimidazol-2-yl)methyl]-6-cyclopropyl-1-(1-methylpyrrolidin-3-yl)-1H-pyrazolo[3,4-b]pyrazin-3-amine] | 33.6 | >596 | > 20000 |
| Cc1ccc2[nH]c(CNc3nn(C4CCN(C)CC4)c4nc(C5CC5)cnc34)nc2c1 [Example 6, 6-cyclopropyl-N-[(5-methyl-1H-benzimidazol-2-yl)methyl]-1-(1-methylpiperidin-4-yl)-1H-pyrazolo[3,4-b]pyrazin-3-amine] | 13.1 | >1526 | > 20000 |
| c1ccc2[nH]c(CNc3nn(CC4CCC4)c4nc(C5CC5)cnc34)nc2c1 [Example 75, N-[(1H-benzimidazol-2-yl)methyl]-1-(cyclobutylmethyl)-6-cyclopropyl-1H-pyrazolo[3,4-b]pyrazin-3-amine] | 135 | >148 | > 20000 |
| O=CO.c1ccc(-n2nc(NCc3nc4ccccc4[nH]3)c3ncc(C4CC4)nc32)cc1 [Example 13, formic acid—N-[(1H-benzimidazol-2-yl)methyl]-6-cyclopropyl-1-phenyl-1H-pyrazolo[3,4-b]pyrazin-3-amine (1/1)] | 43.9 | >455 | > 20000 |
| CC1COCCC1n1nc(NCc2nc3ccccc3[nH]2)c2ncc(C3CC3)nc21 (racemic) [Example 42, (±)-cis/trans-N-[(1H-benzimidazol-2-yl)methyl]-6-cyclopropyl-1-(3-methyloxan-4-yl)-1H-pyrazolo[3,4-b]pyrazin-3-amine] | 11.1 | >2322 | > 20000 |
| CN1CCC(n2nc(NCc3nc4cc(F)ccc4[nH]3)c3ncc(C4CC4)nc32)CC1 [Example 4, 6-cyclopropyl-N-[(5-fluoro-1H-benzimidazol-2-yl)methyl]-1-(1-methylpiperidin-4-yl)-1H-pyrazolo[3,4-b]pyrazin-3-amine] | 4.3 | – | > 20000 |
| Cc1ccc2[nH]c(CNc3nn(C4CCN(C)CC4)c4nc(C5CC5)cnc34)nc2c1C [Example 28, 6-cyclopropyl-N-[(4,5-dimethyl-1H-benzimidazol-2-yl)methyl]-1-(1-methylpiperidin-4-yl)-1H-pyrazolo[3,4-b]pyrazin-3-amine] | 10.6 | >1880 | > 20000 |
| CN1CCC(n2nc(NCc3nc4ccccc4[nH]3)c3ncc(C4CC4)nc32)C1 (single isomer, unassigned) [Example 79, (−) or (+)-N-[(1H-benzimidazol-2-yl)methyl]-6-cyclopropyl-1-(1-methylpyrrolidin-3-yl)-1H-pyrazolo[3,4-b]pyrazin-3-amine] | 41.2 | – | > 20000 |
| CN1CCCC(n2nc(NCc3nc4ccccc4[nH]3)c3ncc(C4CC4)nc32)CC1 (single isomer, unassigned) [Example 37, (+) or (−)-N-[(1H-benzimidazol-2-yl)methyl]-6-cyclopropyl-1-[(4R*)-1-methylazepan-4-yl]-1H-pyrazolo[3,4-b]pyrazin-3-amine] | 12.6 | >1589 | > 20000 |
| CC(CCN(C)C)n1nc(NCc2nc3ccccc3[nH]2)c2ncc(C3CC3)nc21 (single isomer, unassigned) [Example 64, (−) or(+)-N-[(1H-benzimidazol-2-yl)methyl]-6-cyclopropyl-1-[4-(dimethylamino)butan-2-yl]-1H-pyrazolo[3,4-b]pyrazin-3-amine] | 82.6 | >242 | > 20000 |
| O[C@H]1C[C@@H](n2nc(NCc3nc4ccccc4[nH]3)c3ncc(C4CC4)nc32)C1 [Example 40, cis-3-(3-{[(1H-benzimidazol-2-yl)methyl]amino}-6-cyclopropyl-1H-pyrazolo[3,4-b]pyrazin-1-yl)cyclobutan-1-ol] | 2.55 | >7840 | > 20000 |
| CN1CCC(n2nc(NCc3nc4c(F)cccc4[nH]3)c3ncc(C4CC4)nc32)CC1 [Example 3, 6-cyclopropyl-N-[(4-fluoro-1H-benzimidazol-2-yl)methyl]-1-(1-methylpiperidin-4-yl)-1H-pyrazolo[3,4-b]pyrazin-3-amine] | 1.92 | – | > 20000 |
| OC[C@H]1C[C@@H](n2nc(NCc3nc4ccccc4[nH]3)c3ncc(C4CC4)nc32)C1 [Example 47, [cis-3-(3-{[(1H-benzimidazol-2-yl)methyl]amino}-6-cyclopropyl-1H-pyrazolo[3,4-b]pyrazin-1-yl)cyclobutyl]methanol] | 22.8 | – | > 20000 |
| CN1CCC(n2nc(NCc3nc4cc(Cl)c(F)cc4[nH]3)c3ncc(C4CC4)nc32)CC1 [Example 29, N-[(5-chloro-6-fluoro-1H-benzimidazol-2-yl)methyl]-6-cyclopropyl-1-(1-methylpiperidin-4-yl)-1H-pyrazolo[3,4-b]pyrazin-3-amine] | 17.5 | >1145 | > 20000 |
| CC(C)n1nc(NCc2nc3ccccc3[nH]2)c2ncc(C3CC3)nc21 [Example 14, N-[(1H-benzimidazol-2-yl)methyl]-6-cyclopropyl-1-(propan-2-yl)-1H-pyrazolo[3,4-b]pyrazin-3-amine] | 49.6 | >403 | > 20000 |
| CN1CCCC(n2nc(NCc3nc4ccccc4[nH]3)c3ncc(C4CC4)nc32)CC1 (single isomer, unassigned) [Example 38, (−) or (+)-N-[(1H-benzimidazol-2-yl)methyl]-6-cyclopropyl-1-[(4R*)-1-methylazepan-4-yl]-1H-pyrazolo[3,4-b]pyrazin-3-amine] | 13.2 | >1516 | > 20000 |
| COCCC(C)n1nc(NCc2nc3ccccc3[nH]2)c2ncc(C3CC3)nc21 (single isomer, unassigned; (-)) [Example 58, (−)-N-[(1H-benzimidazol-2-yl)methyl]-6-cyclopropyl-1-[4-methoxybutan-2-yl]-1H-pyrazolo[3,4-b]pyrazin-3-amine] | 27.2 | >735 | > 20000 |
| c1ccc2[nH]c(CNc3nn(C4CCOC4)c4nc(C5CC5)cnc34)nc2c1 (single isomer, unassigned) [Example 18, (-) or (+) -N-[(1H-benzimidazol-2-yl)methyl]-6-cyclopropyl-1-[oxolan-3-yl]-1H-pyrazolo[3,4-b]pyrazin-3-amine] | 17.5 | >1142 | > 20000 |
| FC1(F)CCC(n2nc(NCc3nc4ccccc4[nH]3)c3ncc(C4CC4)nc32)CC1 [Example 36, N-[(1H-benzimidazol-2-yl)methyl]-6-cyclopropyl-1-(4,4-difluorocyclohexyl)-1H-pyrazolo[3,4-b]pyrazin-3-amine] | 162 | >124 | > 20000 |
